From publication PMC12362783 (Advanced Science, 2025)

Experiments:
PI3Kα = PI3Kα (Homo sapiens, UniProt P42336); experiment: PIKK family kinase selectivity; assay type: biochemical
mTOR = mTOR (Homo sapiens, UniProt P42345); experiment: PIKK family kinase selectivity; assay type: biochemical; conditions: @2500 nM; read-out: mTOR inhibitory rate at certain concentration
MDA‐MB‐231 cells [1] = experiment: Cell cycle assay, flow cytometry (PI); assay type: cell-based; conditions: MDA‐MB‐231, 48 h; A7, B8 0.5 and 1.0 µM, controls 1.0 µM
Method: (§1) The cell cycle analysis was performed with cells seeded in 6‐well plates in growth media. The cells were allowed to attach overnight (8 h). The cultures were treated with different tested drugs for 48 h. After treatment, cells were collected and fixed with 70% pre‐cold ethanol in PBS and stored at −20 °C overnight. Then washed the cells with PBS twice, and incubated with 100 µg mL^−1 RNase A at 37 °C for 1 h, stained with propidium iodide for 30 min avoid light at room temperature. The stained cells were analyzed by flow cytometry. The percentages of cells in the G1, S, and G2/M phases were determined. The data were analyzed by FlowJo software (Tree Star, Inc., Ashland, OR).

MDA‐MB‐468 cells [2] = experiment: Cell cycle assay, flow cytometry (PI); assay type: cell-based; conditions: MDA‐MB‐468, 48 h; A7, B8 0.5 and 1.0 µM, controls 1.0 µM
Method: as §1

MDA‐MB‐231 cells [3] = experiment: Cell apoptosis assay, Annexin V‐FITC/PI; assay type: cell-based; conditions: MDA‐MB‐231, 72 h
Method: (§2) The cell apoptosis analysis was performed with cells seeded in 6‐well plates in growth media. The cells were allowed to attach overnight (8 h). The cultures were treated with different tested drugs for 72 h and evaluated using an Annexin V Flow Kit (BioLegend#B367750) according to the manufacturer's instructions. The data were analyzed by FlowJo software (Tree Star, Inc., Ashland, OR).

MDA‐MB‐468 cells [4] = experiment: Cell apoptosis assay, Annexin V‐FITC/PI; assay type: cell-based; conditions: MDA‐MB‐468, 72 h
Method: as §2

MDA‐MB‐231 cells [5] = experiment: Wound‐healing and transwell migration assay; assay type: cell-based; conditions: vs AZD6738 and Olaparib alone or their combination
Method: (§3) For the wound‐healing assay, MDA‐MB‐231 cells were seeded into 6‐well plates and grown to 80% confluence. A scratch was made in the cell monolayer using a 20 µL pipette tip, and the cells were washed with PBS to remove floating cells and debris. The cells were then incubated in serum‐free medium. Cells are divided into control and drug treatment Cells in the scratched area were imaged at 0 and 48 h using microscopy, and the distance traveled by cells at the leading edge of the wound at each time point was measured. To assess cell migration, a transwell assay was performed. […] Following 24 h of incubation, the filters were fixed in 4% paraformaldehyde, stained with 0.1% crystal violet, and then imaged and counted under a microscope to determine the number of invading cells. To assess cell invasion, the transwell plate was coated with a layer of Matrigel, and the rest procedure is similar to what has been described above.

MDA‐MB‐231 cells [6] = experiment: Transwell invasion assay (Matrigel); assay type: cell-based; conditions: 24 h, vs AZD6738 and Olaparib alone or their combination
Method: as §3

MDA‐MB‐468 cells [7] = experiment: Transwell invasion assay (Matrigel); assay type: cell-based; conditions: 24 h, vs AZD6738 and Olaparib alone or their combination
Method: as §3

[8] = Oral bioavailability (statement, no method); assay type: in vivo; conditions: preclinical models; necessitates I.P. delivery

Chain of PI3Kα (P42336 whole entry, species assumed): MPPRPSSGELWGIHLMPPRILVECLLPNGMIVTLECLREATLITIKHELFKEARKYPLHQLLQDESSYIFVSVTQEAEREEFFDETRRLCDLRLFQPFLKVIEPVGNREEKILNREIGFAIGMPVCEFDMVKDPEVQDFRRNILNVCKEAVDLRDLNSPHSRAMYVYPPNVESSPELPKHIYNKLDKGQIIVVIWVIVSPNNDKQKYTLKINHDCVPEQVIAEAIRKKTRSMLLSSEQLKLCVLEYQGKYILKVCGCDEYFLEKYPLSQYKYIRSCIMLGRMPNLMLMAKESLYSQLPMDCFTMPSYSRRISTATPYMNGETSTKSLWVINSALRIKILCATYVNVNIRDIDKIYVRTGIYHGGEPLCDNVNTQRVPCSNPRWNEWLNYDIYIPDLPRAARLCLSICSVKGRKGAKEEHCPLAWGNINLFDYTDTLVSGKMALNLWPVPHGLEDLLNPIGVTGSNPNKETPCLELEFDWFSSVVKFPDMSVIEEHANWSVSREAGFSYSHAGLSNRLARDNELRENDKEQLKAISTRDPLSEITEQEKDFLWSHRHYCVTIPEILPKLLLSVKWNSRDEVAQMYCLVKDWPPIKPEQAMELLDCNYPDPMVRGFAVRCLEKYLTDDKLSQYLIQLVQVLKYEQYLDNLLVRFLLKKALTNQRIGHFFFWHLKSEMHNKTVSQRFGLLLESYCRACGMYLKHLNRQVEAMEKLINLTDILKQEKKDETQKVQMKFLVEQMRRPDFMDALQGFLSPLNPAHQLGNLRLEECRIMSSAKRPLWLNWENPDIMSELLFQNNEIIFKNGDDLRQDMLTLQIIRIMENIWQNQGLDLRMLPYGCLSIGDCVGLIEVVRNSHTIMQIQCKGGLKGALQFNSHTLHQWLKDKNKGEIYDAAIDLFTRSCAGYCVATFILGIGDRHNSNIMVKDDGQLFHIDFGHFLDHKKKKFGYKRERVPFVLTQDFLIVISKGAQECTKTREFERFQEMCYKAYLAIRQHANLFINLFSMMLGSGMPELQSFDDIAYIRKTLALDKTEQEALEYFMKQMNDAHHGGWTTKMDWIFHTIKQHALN
Chain of PI3Kα (P27986 whole entry partner, species assumed): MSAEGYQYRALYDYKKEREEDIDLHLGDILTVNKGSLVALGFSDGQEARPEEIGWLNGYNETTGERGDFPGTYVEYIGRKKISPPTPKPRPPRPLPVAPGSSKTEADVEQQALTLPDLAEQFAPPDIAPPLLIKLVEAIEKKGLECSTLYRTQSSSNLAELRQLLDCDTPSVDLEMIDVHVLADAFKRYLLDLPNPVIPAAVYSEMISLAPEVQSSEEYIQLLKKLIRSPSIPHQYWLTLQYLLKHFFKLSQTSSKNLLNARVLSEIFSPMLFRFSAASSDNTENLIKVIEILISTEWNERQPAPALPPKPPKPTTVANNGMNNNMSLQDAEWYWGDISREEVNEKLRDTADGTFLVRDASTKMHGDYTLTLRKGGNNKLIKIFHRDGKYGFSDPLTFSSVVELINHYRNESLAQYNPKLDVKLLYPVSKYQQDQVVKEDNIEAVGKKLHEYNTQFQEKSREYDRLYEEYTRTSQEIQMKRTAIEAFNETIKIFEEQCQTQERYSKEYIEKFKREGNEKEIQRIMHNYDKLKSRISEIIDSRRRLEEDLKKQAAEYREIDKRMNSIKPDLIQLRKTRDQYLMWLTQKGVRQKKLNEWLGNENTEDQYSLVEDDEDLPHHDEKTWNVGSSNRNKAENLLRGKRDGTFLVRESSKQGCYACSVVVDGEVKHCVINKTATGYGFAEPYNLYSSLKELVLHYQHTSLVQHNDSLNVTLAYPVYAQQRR

For `C[C@@H]1COCCN1c1cc(CNC(=O)c2ccc(C(=O)N3CCN(C(=O)c4cc(Cc5n[nH]c(=O)c6ccccc56)ccc4F)CC3)cc2)nc(-c2ccnc3[nH]ccc23)n1` [Compound B8, (R)‐4‐(4‐(2‐fluoro‐5‐((4‐oxo‐3,4‐dihydrophthalazin‐1‐yl)methyl)benzoyl)piperazine‐1‐carbonyl)‐N‐((6‐(3‐methylmorpholino)‐2‐(1H‐pyrrolo[2,3‐b]pyridin‐4‐yl)pyrimidin‐4‐yl)methyl) benzamide], the IC50 (PI3Kα) was over 2500 nM, the inhibition at […] (mTOR) was 10.3% and the “effect on cell cycle distribution” value (MDA‐MB‐231 cells [1]) was “markedly increased the proportion of G2/M phase cells”. For the same compound, the “effect on cell cycle distribution” value (MDA‐MB‐468 cells [2]) was “markedly increased the proportion of G2/M phase cells”, the “ability to induce apoptosis vs combination of AZD6738 and Olaparib” value (MDA‐MB‐231 cells [3]) was “markedly stronger capacity to induce apoptosis” and the “ability to induce apoptosis vs combination of AZD6738 and Olaparib” value (MDA‐MB‐468 cells [4]) was “markedly stronger capacity to induce apoptosis”. The “migratory capacity” value (MDA‐MB‐231 cells [5]) was “superior inhibitory effect on the migratory capacity”, the “invasive capacity” value (MDA‐MB‐231 cells [6]) was “superior inhibitory effects on the invasive capacity” and the “invasive capacity” value (MDA‐MB‐468 cells [7]) was “superior inhibitory effects on the invasive capacity”. The oral bioavailability [8] was “poor oral bioavailability”.
